Test system: model rats suffering from walking disability due to compression of cauda equina
Test: walking disability model due to compression of cauda equina (treadmill walking distance)
Type: in vivo, Wistar strain rats
Details: rat, oral twice daily, suspension 0.2 mg/mL in 0.5 w/v % methyl cellulose, until 13th or 20th day after operation; vs control group p<0.01
Description: Wistar strain rats (male; seven weeks age) (Charles Liver Japan) were subjected to a walk training once daily for continuous three or four days using a treadmill (manufactured by Muromachi Kikai). On the last day of the walk training, the animals were grouped and, on the next day, the walking time was measured and then a sham operation or an operation for compressing the cauda equina mentioned below i) was carried out. On the third, seventh, fourteenth and twenty-first days after the operation, walking time was measured. Based on the walking time measured, a walking distance was calculated.
After measuring the walking time on the third day, the group for which the operation for compressing the cauda equina was carried out was further grouped into a control group and a drug-administered group on the basis of their walking distances on the day when the operation was done and on the third day after the operation. […]
The treadmill was operated and walking time of each rat was measured using a timer. […]
As to the evaluation, the control group was evaluated by a Welch test against the sham operation group (##: p<0.01). The drug-administered group was evaluated by a t-test or a Welch test against the control group (★★: p<0.01).

`CC(C)N(CCCCOCC(=O)NS(C)(=O)=O)c1cnc(-c2ccccc2)c(-c2ccccc2)n1` [compound A, 2-{4-[N-(5,6-diphenylpyrazin-2-yl)-N-isopropylamino]butyloxy}-N-(methylsulfonyl)acetamide] was tested, and the “disability in walking due to compression of cauda equina (walking distance)” value was “significantly improved”.

Source: US8629145B2, “Therapeutic agent for spinal canal stenosis” (Nippon Shinyaku Co., Ltd., priority 2008, dated 2014)
